Laboratory results published in US20230085307A1, “PYRIDAZINONE COMPOUND AND HERBICIDE” (NISSAN CHEMICAL CORPORATION, priority 2019, published 2023).

Columns and labels:
barnyard grass [1] = assay: Test Example 4: herbicidal effect by soil treatment (Table 19, symbol H); type: in vivo, barnyard grass (Echinochloa crus-galli); conditions: amount of applied herbicide 320 g/ha
Summary of the method: (§1)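 Three weeks of greenhouse growth at 25° C. to 30° C. followed a uniform surface spray of water-diluted emulsion at a predetermined herbicide amount. Seeds had been sown beforehand under about 1.5 cm of sterilized diluvial soil. Grading followed criteria set out in an earlier test.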

late watergrass = assay: Test Example 1: herbicidal activity, application before weed generation under submerged conditions (Table 16, symbol A); type: in vivo, late watergrass (Echinochloa oryzicola); conditions: amount of applied herbicide 320 g/ha
Summary of the method: (§2)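 Alluvial soil was flooded to 4 cm depth, weed seeds were sown mixed and 2.5-leaf rice seedlings were transplanted. On sowing day, the compound's emulsion, diluted in water to a set dose, was applied to the water surface. Plants grew at 25–30 °C and were scored 0–5 after three weeks.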

blackgrass [2] = assay: Test Example 4: herbicidal effect by soil treatment (Table 19, symbol J); type: in vivo, blackgrass (Alopecurus myosuroides); conditions: amount of applied herbicide 320 g/ha
Summary of the method: as §1

persian speedwell = assay: Test Example 5: herbicidal effect by foliage application, plastic box (Table 20, symbol R); type: in vivo, Persian speedwell (Veronica persica); conditions: amount of applied herbicide 320 g/ha; foliage application after 14-day growth; evaluated three weeks after application
Summary of the method: (§3)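 Plants sown in sterilized diluvial soil and grown 14 days in a greenhouse at 25° C to 30° C, then sprayed on the foliage with the compound's emulsion diluted in water to a predetermined herbicide amount. Injury to weeds and crops scored three weeks after application on a visual rating scale.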

barnyard grass [3] = assay: Test Example 5: herbicidal effect by foliage application, plastic box (Table 20, symbol H); type: in vivo, barnyard grass (Echinochloa crus-galli); conditions: amount of applied herbicide 320 g/ha; foliage application after 14-day growth; evaluated three weeks after application
Summary of the method: as §3

Chinese sprangletop = assay: Test Example 3: herbicidal effect by foliage application, Wagner pot (Table 18, symbol D); type: in vivo, chinese sprangletop (Leptochloa chinensis); conditions: 320 g/ha
Summary of the method: (§4)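 Plants were sown in alluvial soil held under 0.1–0.5 cm standing water and grown 14 days in a greenhouse at 25–30 °C. An emulsifiable formulation, water-diluted to the set dose, was then sprayed onto the foliage, and effects were scored three weeks later using previously defined criteria.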

oval-leafed pondweed = assay: Test Example 1: herbicidal activity, application before weed generation under submerged conditions (Table 16, symbol C); type: in vivo, oval-leafed pondweed (Monochoria vaginalis); conditions: amount of applied herbicide 320 g/ha
Summary of the method: as §2

chickweed [4] = assay: Test Example 4: herbicidal effect by soil treatment (Table 19, symbol P); type: in vivo, common chickweed (Stellaria media); conditions: amount of applied herbicide 320 g/ha
Summary of the method: as §1

redroot pigweed [5] = assay: Test Example 5: herbicidal effect by foliage application, plastic box (Table 20, symbol N); type: in vivo, redroot pigweed (Amaranthus retroflexus); conditions: amount of applied herbicide 320 g/ha; foliage application after 14-day growth; evaluated three weeks after application
Summary of the method: as §3

Japanese bulrush = assay: Test Example 1: herbicidal activity, application before weed generation under submerged conditions (Table 16, symbol B); type: in vivo, Japanese bulrush (Schoenoplectus juncoides); conditions: amount of applied herbicide 320 g/ha
Summary of the method: as §2

velvetleaf [6] = assay: Test Example 5: herbicidal effect by foliage application, plastic box (Table 20, symbol M); type: in vivo, velvetleaf (Abutilon theophrasti); conditions: amount of applied herbicide 320 g/ha; foliage application after 14-day growth; evaluated three weeks after application
Summary of the method: as §3

green foxtail [7] = assay: Test Example 4: herbicidal effect by soil treatment (Table 19, symbol G); type: in vivo, green foxtail (Setaria viridis); conditions: amount of applied herbicide 320 g/ha
Summary of the method: as §1

windgrass [8] = assay: Test Example 5: herbicidal effect by foliage application, plastic box (Table 20, symbol L); type: in vivo, windgrass (Apera spica-venti); conditions: amount of applied herbicide 320 g/ha; foliage application after 14-day growth; evaluated three weeks after application
Summary of the method: as §3

wild oat [9] = assay: Test Example 5: herbicidal effect by foliage application, plastic box (Table 20, symbol I); type: in vivo, wild oat (Avena fatua); conditions: amount of applied herbicide 320 g/ha; foliage application after 14-day growth; evaluated three weeks after application
Summary of the method: as §3

rice flat sedge = assay: Test Example 3: herbicidal effect by foliage application, Wagner pot (Table 18, symbol E); type: in vivo, rice flat sedge (Cyperus iria); conditions: 320 g/ha
Summary of the method: as §4

lambsquarters [10] = assay: Test Example 5: herbicidal effect by foliage application, plastic box (Table 20, symbol O); type: in vivo, lambsquarters (Chenopodium album); conditions: amount of applied herbicide 320 g/ha; foliage application after 14-day growth; evaluated three weeks after application
Summary of the method: as §3

redroot pigweed [11] = assay: Test Example 4: herbicidal effect by soil treatment (Table 19, symbol N); type: in vivo, redroot pigweed (Amaranthus retroflexus); conditions: amount of applied herbicide 320 g/ha
Summary of the method: as §1

southern crabgrass [12] = assay: Test Example 5: herbicidal effect by foliage application, plastic box (Table 20, symbol F); type: in vivo, southern crabgrass (Digitaria ciliaris); conditions: amount of applied herbicide 320 g/ha; foliage application after 14-day growth; evaluated three weeks after application
Summary of the method: as §3

wild oat [13] = assay: Test Example 4: herbicidal effect by soil treatment (Table 19, symbol I); type: in vivo, wild oat (Avena fatua); conditions: amount of applied herbicide 320 g/ha
Summary of the method: as §1

Italian ryegrass [14] = assay: Test Example 4: herbicidal effect by soil treatment (Table 19, symbol K); type: in vivo, Italian ryegrass (Lolium multiflorum); conditions: amount of applied herbicide 320 g/ha
Summary of the method: as §1

velvetleaf [15] = assay: Test Example 4: herbicidal effect by soil treatment (Table 19, symbol M); type: in vivo, velvetleaf (Abutilon theophrasti); conditions: amount of applied herbicide 320 g/ha
Summary of the method: as §1

Italian ryegrass [16] = assay: Test Example 5: herbicidal effect by foliage application, plastic box (Table 20, symbol K); type: in vivo, Italian ryegrass (Lolium multiflorum); conditions: amount of applied herbicide 320 g/ha; foliage application after 14-day growth; evaluated three weeks after application
Summary of the method: as §3

windgrass [17] = assay: Test Example 4: herbicidal effect by soil treatment (Table 19, symbol L); type: in vivo, windgrass (Apera spica-venti); conditions: amount of applied herbicide 320 g/ha
Summary of the method: as §1

barnyard grass [18] = assay: Test Example 3: herbicidal effect by foliage application, Wagner pot (Table 18, symbol H); type: in vivo, barnyard grass (Echinochloa crus-galli); conditions: 320 g/ha
Summary of the method: as §4

southern crabgrass [19] = assay: Test Example 4: herbicidal effect by soil treatment (Table 19, symbol F); type: in vivo, southern crabgrass (Digitaria ciliaris); conditions: amount of applied herbicide 320 g/ha
Summary of the method: as §1

lambsquarters [20] = assay: Test Example 4: herbicidal effect by soil treatment (Table 19, symbol O); type: in vivo, lambsquarters (Chenopodium album); conditions: amount of applied herbicide 320 g/ha
Summary of the method: as §1

blackgrass [21] = assay: Test Example 5: herbicidal effect by foliage application, plastic box (Table 20, symbol J); type: in vivo, blackgrass (Alopecurus myosuroides); conditions: amount of applied herbicide 320 g/ha; foliage application after 14-day growth; evaluated three weeks after application
Summary of the method: as §3

chickweed [22] = assay: Test Example 5: herbicidal effect by foliage application, plastic box (Table 20, symbol P); type: in vivo, common chickweed (Stellaria media); conditions: amount of applied herbicide 320 g/ha; foliage application after 14-day growth; evaluated three weeks after application
Summary of the method: as §3

green foxtail [23] = assay: Test Example 5: herbicidal effect by foliage application, plastic box (Table 20, symbol G); type: in vivo, green foxtail (Setaria viridis); conditions: amount of applied herbicide 320 g/ha; foliage application after 14-day growth; evaluated three weeks after application
Summary of the method: as §3

With CCCC(=O)Oc1c(C)nn(C)c(=O)c1-c1c(-c2ccc3c(c2)OCCO3)sc2cc(F)c(F)cc12 [5-038] the “H: barnyard grass, herbicidal effect grade” value (barnyard grass [1]) was 0 (Herbicidal rate of 5% or less (almost no effect)), the “Herbicidal effect, A: late watergrass” value (late watergrass) was 4 (Herbicidal rate of 70% or more and less than 90%) and the “J: blackgrass, herbicidal effect grade” value (blackgrass [2]) was 0 (Herbicidal rate of 5% or less (almost no effect)). For the same molecule, the “Herbicidal effect by foliage application, R: persian speedwell” value (persian speedwell) was 5 (Herbicidal rate of 90% or more (almost completely withered)), the “Herbicidal effect by foliage application, H: barnyard grass” value (barnyard grass [3]) was 0 (Herbicidal rate of 5% or less (almost no effect)) and the “herbicidal effect on Chinese sprangletop (D)” value (Chinese sprangletop) was 2 (Herbicidal rate of 20% or more and less than 40%). For the same molecule, the “Herbicidal effect, C: oval-leafed pondweed” value (oval-leafed pondweed) was 4 (Herbicidal rate of 70% or more and less than 90%), the “P: chickweed, herbicidal effect grade” value (chickweed [4]) was 0 (Herbicidal rate of 5% or less (almost no effect)) and the “Herbicidal effect by foliage application, N: redroot pigweed” value (redroot pigweed [5]) was 2 (Herbicidal rate of 20% or more and less than 40%). The “Herbicidal effect, B: Japanese bulrush” value (Japanese bulrush) was 3 (Herbicidal rate of 40% or more and less than 70%), the “Herbicidal effect by foliage application, M: velvetleaf” value (velvetleaf [6]) was 3 (Herbicidal rate of 40% or more and less than 70%) and the “G: green foxtail, herbicidal effect grade” value (green foxtail [7]) was 0 (Herbicidal rate of 5% or less (almost no effect)). For the same molecule, the “Herbicidal effect by foliage application, L: windgrass” value (windgrass [8]) was 0 (Herbicidal rate of 5% or less (almost no effect)), the “Herbicidal effect by foliage application, I: wild oat” value (wild oat [9]) was 0 (Herbicidal rate of 5% or less (almost no effect)) and the “herbicidal effect on rice flat sedge (E)” value (rice flat sedge) was 4 (Herbicidal rate of 70% or more and less than 90%). The “Herbicidal effect by foliage application, O: lambsquarters” value (lambsquarters [10]) was 1 (Herbicidal rate of 5% or more and less than 20%), the “N: redroot pigweed, herbicidal effect grade” value (redroot pigweed [11]) was 2 (Herbicidal rate of 20% or more and less than 40%) and the “Herbicidal effect by foliage application, F: southern crabgrass” value (southern crabgrass [12]) was 0 (Herbicidal rate of 5% or less (almost no effect)). The “I: wild oat, herbicidal effect grade” value (wild oat [13]) was 0 (Herbicidal rate of 5% or less (almost no effect)), the “K: Italian ryegrass, herbicidal effect grade” value (Italian ryegrass [14]) was 0 (Herbicidal rate of 5% or less (almost no effect)) and the “M: velvetleaf, herbicidal effect grade” value (velvetleaf [15]) was 0 (Herbicidal rate of 5% or less (almost no effect)). For the same molecule, the “Herbicidal effect by foliage application, K: Italian ryegrass” value (Italian ryegrass [16]) was 0 (Herbicidal rate of 5% or less (almost no effect)), the “L: windgrass, herbicidal effect grade” value (windgrass [17]) was 0 (Herbicidal rate of 5% or less (almost no effect)) and the “herbicidal effect on barnyard grass (H)” value (barnyard grass [18]) was 2 (Herbicidal rate of 20% or more and less than 40%). For the same molecule, the “F: southern crabgrass, herbicidal effect grade” value (southern crabgrass [19]) was 0 (Herbicidal rate of 5% or less (almost no effect)), the “O: lambsquarters, herbicidal effect grade” value (lambsquarters [20]) was 4 (Herbicidal rate of 70% or more and less than 90%) and the “Herbicidal effect by foliage application, J: blackgrass” value (blackgrass [21]) was 0 (Herbicidal rate of 5% or less (almost no effect)). The “Herbicidal effect by foliage application, P: chickweed” value (chickweed [22]) was 5 (Herbicidal rate of 90% or more (almost completely withered)) and the “Herbicidal effect by foliage application, G: green foxtail” value (green foxtail [23]) was 0 (Herbicidal rate of 5% or less (almost no effect)).
